Test results from patent US20120178626A1, “SYNERGISTIC HERBICIDAL COMPOSITION CONTAINING PROPYZAMIDE AND BENFLURALIN” (DOW AGROSCIENCES LLC, priority 2011, published 2012).

Columns and labels:
Experiment in all cases: Field trial, percent visual weed control, soil-applied tank mixes
Assay type in all cases: in vivo
Settings in all cases: applied to soil
[1] = system: Venice mallow (Hibiscus trionum, HIBTR)
Procedure: (§1) These trials were conducted under field conditions in USA. Trial sites were located in California. The trials were conducted using normal small plot research methodology. Trial plots were between 2 to 4.5 meters (m) wide by 5.5 to 10 m long. All treatments were applied using a randomized complete block trial design with 4 replications per treatment. The trial sites had naturally occurring populations of weeds. The weed spectrum included, but was not limited to, redroot pigweed (Amaranthus retroflexus, AMARE), Shepherds purse (Capsella bursa-pastoris, CAPBP) and Venice mallow (Hibiscus trionum, HIBTR). Treatments consisted of tank mixes of the commercial formulations of propyzamide and benfluralin applied in water directly to the soil. The application volumes were between 93.5 to 187 liters per hectare (L/ha). All application were made using precision gas backpack hand sprayers using a 2 or 3 m boom using flat fan (80° or 110°) nozzles to broadcast the treatments on the soil.
(§2) The treated plots and control plots were rated blind at various intervals after application. Ratings were based of Percent (%) Visual weed control, where 0 corresponds to no control and 100 corresponds to complete control.
(§3) Data was collected for all trials and analyzed using various statistical methods.
(§4) Colby's equation was used to determine the herbicidal effects expected from the mixtures (Colby, S. R. Calculation of the synergistic and antagonistic response of herbicide combinations. Weeds 1967 15, 20-22).
(§5) The following equation was used to calculate the expected activity of mixtures containing two active ingredients, A and B:
(§6) A=observed efficacy of active ingredient A at the same concentration as used in the mixture;
(§7) B=observed efficacy of active ingredient B at the same concentration as used in the mixture.

[2] = system: Shepherds purse (Capsella bursa-pastoris, CAPBP)
Procedure: as §1, §2, §3, §4, §5, §6, §7

[3] = system: redroot pigweed (Amaranthus retroflexus, AMARE)
Procedure: as §1, §2, §3, §4, §5, §6, §7

[4] = propyzamide 0, benfluralin 340 g ai/ha, 50 Days After Application
[5] = propyzamide 210 g ai/ha, benfluralin 0, 50 Days After Application

SMILES | % Weed Control HIBTR, Ob (percent control observed) [1, 4] | % Weed Control CAPBP, Ob (percent control observed) ([2]; propyzamide 0, benfluralin 670 g ai/ha, 50 Days After Application) | % Weed Control AMARE, Ob (percent control observed) [3, 4] | % Weed Control HIBTR, Ob (percent control observed) [1, 5] | % Weed Control CAPBP, Ob (percent control observed) [2, 5] | % Weed Control AMARE, Ob (percent control observed) [3, 5]
CCCCN(CC)c1c([N+](=O)[O-])cc(C(F)(F)F)cc1[N+](=O)[O-] [Benfluralin, N-butyl-N-ethyl-2,6-dinitro-4-(trifluoromethyl)-benzenamine] | 0% | 3% | 0% | – | – | –
C#CC(C)(C)NC(=O)c1cc(Cl)cc(Cl)c1 [Propyzamide, 3,5-dichloro-N-(1,1-dimethyl-2-propynyl)-benzamide] | – | – | – | 20% | 20% | 13%
